# In patent US11629143B2, “HipK4 inhibitors and uses thereof” (Vibliome Therapeutics, LLC, priority 2020, dated 2023):
# Legend:
# Assay in all cases: Kinase panel (mobility shift)
# Type in all cases: biochemical
# EPH-B2 = biological target: T1, EPH-B2 (Homo sapiens, UniProt P29323); conditions: at 5 um
# T1 sequence (P29323 19-1055): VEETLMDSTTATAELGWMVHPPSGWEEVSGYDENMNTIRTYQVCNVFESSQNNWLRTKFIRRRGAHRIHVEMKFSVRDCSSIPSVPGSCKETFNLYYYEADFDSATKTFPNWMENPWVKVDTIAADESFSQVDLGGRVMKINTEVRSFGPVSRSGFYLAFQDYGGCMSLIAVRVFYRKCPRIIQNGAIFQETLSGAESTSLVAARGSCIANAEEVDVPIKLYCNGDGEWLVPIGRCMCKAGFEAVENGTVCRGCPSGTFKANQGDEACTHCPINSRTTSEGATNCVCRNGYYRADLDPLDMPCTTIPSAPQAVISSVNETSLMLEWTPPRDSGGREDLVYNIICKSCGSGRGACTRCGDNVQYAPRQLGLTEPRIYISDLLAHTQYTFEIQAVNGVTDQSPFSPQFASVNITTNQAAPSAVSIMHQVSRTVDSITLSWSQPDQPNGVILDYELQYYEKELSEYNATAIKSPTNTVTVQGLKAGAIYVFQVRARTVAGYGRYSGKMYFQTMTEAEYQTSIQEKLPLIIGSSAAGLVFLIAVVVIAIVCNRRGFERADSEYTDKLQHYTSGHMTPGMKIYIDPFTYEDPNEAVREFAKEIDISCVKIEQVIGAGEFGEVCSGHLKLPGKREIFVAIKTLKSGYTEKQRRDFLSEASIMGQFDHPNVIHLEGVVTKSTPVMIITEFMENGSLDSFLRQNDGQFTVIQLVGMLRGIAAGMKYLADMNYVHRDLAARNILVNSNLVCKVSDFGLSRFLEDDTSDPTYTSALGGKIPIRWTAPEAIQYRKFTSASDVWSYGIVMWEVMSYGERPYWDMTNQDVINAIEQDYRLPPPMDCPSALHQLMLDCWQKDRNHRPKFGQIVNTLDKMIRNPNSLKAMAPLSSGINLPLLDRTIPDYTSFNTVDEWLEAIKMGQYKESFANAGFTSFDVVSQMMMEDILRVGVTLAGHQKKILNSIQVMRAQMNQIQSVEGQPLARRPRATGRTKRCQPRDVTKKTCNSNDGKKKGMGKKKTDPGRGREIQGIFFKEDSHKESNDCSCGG
# Summary of the method: (§1)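 Microfluidic mobility-shift readout: product and substrate peaks are resolved by charge, and their fluorescence is compared to give enzyme activity. Enzyme, fluorescent substrate and test compound are reacted, then terminated before chip loading. Values are binned at 5 um: A 95% or greater, B 90%-94%, C 80%-89%.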
# HIPK4 = biological target: T2, HIPK4 (Homo sapiens, UniProt Q8NE63)
# T2 sequence (Q8NE63 1-616): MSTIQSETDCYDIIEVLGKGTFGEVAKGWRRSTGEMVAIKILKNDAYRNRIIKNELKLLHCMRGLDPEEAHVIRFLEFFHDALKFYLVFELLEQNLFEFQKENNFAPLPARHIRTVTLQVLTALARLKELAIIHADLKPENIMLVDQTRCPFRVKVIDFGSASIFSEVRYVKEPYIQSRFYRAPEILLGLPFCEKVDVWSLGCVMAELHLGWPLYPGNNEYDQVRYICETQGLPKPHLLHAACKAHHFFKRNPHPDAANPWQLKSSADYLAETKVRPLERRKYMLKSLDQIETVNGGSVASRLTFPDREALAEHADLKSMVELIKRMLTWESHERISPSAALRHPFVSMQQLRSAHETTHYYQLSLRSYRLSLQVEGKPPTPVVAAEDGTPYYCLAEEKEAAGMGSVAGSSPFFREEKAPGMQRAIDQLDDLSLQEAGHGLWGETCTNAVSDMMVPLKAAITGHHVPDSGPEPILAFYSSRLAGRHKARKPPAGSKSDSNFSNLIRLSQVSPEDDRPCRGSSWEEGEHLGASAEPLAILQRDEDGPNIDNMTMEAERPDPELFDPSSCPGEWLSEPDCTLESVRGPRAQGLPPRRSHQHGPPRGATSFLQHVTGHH
# Summary of the method: as §1
# LOK = LOK (Homo sapiens, UniProt O94804); conditions: at 5 um
# LOK, sequence (O94804 whole entry, species assumed): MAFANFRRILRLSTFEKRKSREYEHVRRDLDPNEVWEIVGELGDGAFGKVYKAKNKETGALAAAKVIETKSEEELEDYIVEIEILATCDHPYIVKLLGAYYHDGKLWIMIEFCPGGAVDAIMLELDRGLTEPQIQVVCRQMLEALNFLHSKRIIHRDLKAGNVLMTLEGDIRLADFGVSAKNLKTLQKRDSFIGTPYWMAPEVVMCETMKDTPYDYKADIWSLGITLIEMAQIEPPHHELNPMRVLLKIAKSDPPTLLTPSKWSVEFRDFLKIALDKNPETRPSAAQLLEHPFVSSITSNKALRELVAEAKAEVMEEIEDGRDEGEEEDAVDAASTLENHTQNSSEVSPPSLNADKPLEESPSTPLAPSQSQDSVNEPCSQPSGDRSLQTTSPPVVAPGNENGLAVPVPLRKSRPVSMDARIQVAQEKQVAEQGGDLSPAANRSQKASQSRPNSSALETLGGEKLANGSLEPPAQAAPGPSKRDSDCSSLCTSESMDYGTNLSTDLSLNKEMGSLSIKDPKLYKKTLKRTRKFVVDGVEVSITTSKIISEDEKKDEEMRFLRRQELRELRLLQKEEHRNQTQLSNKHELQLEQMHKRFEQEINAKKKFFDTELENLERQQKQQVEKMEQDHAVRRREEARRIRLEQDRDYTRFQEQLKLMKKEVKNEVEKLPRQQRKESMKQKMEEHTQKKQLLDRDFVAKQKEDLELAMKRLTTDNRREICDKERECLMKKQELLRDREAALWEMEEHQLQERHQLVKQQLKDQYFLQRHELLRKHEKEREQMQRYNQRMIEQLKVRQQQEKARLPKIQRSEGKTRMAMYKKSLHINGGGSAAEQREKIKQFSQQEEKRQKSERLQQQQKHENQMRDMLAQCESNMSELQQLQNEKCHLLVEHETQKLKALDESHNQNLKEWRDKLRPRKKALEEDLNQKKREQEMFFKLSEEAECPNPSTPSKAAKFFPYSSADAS
# Summary of the method: as §1
# MER = biological target: T3, MER (Homo sapiens, UniProt Q12866)
# T3 sequence (Q12866 21-999): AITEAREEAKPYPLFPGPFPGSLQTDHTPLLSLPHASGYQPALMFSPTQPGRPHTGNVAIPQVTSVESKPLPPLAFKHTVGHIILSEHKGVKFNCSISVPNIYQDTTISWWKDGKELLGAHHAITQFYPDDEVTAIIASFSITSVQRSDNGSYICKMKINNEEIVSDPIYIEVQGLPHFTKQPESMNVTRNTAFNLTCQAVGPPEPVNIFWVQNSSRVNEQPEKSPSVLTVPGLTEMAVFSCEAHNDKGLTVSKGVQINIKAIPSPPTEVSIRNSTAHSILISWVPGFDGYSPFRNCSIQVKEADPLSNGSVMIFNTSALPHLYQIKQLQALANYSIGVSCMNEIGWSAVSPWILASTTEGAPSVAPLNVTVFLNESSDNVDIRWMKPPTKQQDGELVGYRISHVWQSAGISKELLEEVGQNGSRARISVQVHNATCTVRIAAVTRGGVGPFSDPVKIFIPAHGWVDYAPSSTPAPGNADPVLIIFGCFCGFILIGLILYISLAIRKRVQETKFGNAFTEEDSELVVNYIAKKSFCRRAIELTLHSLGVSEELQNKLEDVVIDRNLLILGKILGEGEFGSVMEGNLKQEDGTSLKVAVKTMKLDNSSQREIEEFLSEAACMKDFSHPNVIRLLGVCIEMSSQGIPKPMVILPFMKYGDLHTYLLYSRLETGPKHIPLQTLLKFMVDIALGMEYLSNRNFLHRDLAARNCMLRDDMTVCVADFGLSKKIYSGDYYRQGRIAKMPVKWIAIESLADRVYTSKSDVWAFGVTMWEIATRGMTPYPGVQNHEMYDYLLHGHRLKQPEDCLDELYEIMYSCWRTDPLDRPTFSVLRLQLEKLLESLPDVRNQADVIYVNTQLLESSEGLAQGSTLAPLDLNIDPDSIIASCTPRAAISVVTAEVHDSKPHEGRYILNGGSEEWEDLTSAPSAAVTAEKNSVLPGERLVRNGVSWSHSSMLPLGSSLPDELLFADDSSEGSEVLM
# Summary of the method: as §1
# PDGFR-b = PDGFR-b (Homo sapiens, UniProt P09619)
# PDGFR-b, sequence (P09619 33-1106, species assumed): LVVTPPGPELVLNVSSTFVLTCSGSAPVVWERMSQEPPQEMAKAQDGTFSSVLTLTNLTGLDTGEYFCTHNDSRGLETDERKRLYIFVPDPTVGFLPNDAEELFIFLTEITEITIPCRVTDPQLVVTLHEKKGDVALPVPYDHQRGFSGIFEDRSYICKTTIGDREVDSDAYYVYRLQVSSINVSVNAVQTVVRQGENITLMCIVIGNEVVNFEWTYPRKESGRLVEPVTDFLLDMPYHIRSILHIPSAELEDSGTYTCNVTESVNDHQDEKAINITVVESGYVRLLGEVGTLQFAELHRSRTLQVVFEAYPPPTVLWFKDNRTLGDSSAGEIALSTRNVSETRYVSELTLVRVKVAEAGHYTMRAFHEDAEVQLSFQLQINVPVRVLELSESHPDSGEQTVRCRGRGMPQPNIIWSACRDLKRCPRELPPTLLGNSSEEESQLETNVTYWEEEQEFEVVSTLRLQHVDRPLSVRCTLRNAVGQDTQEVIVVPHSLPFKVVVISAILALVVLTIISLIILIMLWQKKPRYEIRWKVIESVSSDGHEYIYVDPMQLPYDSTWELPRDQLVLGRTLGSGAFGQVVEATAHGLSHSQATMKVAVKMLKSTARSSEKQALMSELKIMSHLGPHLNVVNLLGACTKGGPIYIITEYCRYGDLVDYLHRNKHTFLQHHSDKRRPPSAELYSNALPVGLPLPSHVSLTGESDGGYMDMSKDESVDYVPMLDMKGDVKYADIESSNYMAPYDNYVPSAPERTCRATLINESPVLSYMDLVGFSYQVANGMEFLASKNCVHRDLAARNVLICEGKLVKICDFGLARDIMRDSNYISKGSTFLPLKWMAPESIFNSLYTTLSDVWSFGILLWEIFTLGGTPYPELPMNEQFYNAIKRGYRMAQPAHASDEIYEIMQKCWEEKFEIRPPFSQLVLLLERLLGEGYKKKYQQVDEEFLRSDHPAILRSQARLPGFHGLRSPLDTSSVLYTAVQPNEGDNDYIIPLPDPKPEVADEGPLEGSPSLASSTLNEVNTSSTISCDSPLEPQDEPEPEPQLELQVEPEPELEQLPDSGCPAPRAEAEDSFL
# Summary of the method: as §1
"inhibition of kinase activity, EPH-B2 (EPH-B2)",inhibition at 5 µM (HIPK4),"inhibition of kinase activity, LOK (LOK)",inhibition at 5 µM (MER),inhibition at 5 µM (PDGFR-b),Structure (SMILES)
E (category E is less than 50%),≥ 95%,E (category E is less than 50%),< 50%,< 50%,CSc1nc(C(=O)Nc2ccc(Oc3ccnc(C(=O)NC4CCN(C)CC4)c3)c(F)c2)c(-c2ccc(F)cc2)o1 [Compound 42]
E (category E is less than 50%),≥ 95%,E (category E is less than 50%),< 50%,< 50%,COc1nc(C(=O)Nc2ccc(Oc3ccnc(C(=O)NCC(F)(F)F)c3)c(F)c2)c(-c2ccc(F)cc2)o1 [Compound 43]
